System: leukotriene LTD4 aerosol challenge in guinea-pigs
Experiment: guinea-pig aerosol test (LTD4 aerosol challenge, onset of dyspnea)
Type: in vivo
Conditions: for ED50: Cavia porcellus, oral administration, solution in poly(ethylene glycol), predosed generally 1 hour before LTD4 aerosol, read-out: ED50 (protection against LTD4-induced dyspnea)
Procedure: According to this procedure, guinea-pigs are predosed with test compound as a solution in poly(ethylene glycol) (generally 1 hour) before an aerosol challenge of leukotriene LTD4 (starting with 2 ml of a 30 microgram/ml solution) and the effect of the test compound on the average time of leukotriene initiated change in breathing pattern (such as onset of dyspnea) recorded and compared with that in undosed-, control guinea-pigs. Percent protection engendered by a test compound was calculated from the time delay to the onset of dyspnea compared to that for control animals.

Row | Compound | ED50 [µmol/kg] | untoward side-effects (oral, at several multiples of the minimum effective dose)
1 | COc1cc(C(=O)NS(=O)(=O)c2ccccc2C)ccc1Cc1cn(C)c2ccc(C(=O)NC[C@H](C)CC(F)(F)F)cc12 [Example 2, (R)-3-Methoxy-4-[1-methyl-5-(2-methyl-4,4,4-trifluorobutylcarbamoyl)indol-3-ylmethyl]-N-(2-methylphenylsulfonyl)benzamide] | 1.1 | without any indication of untoward side-effects
2 | COc1cc(C(=O)NS(=O)(=O)c2ccccc2C)ccc1Cc1cn(C)c2ccc(C(=O)NCC3CCCC3)cc12 [reference compound] | 19.2 | 
